Data published in US11498903B2 (BRISTOL-MYERS SQUIBB COMPANY, priority 2017, dated 2022).
Where two headings read alike, the source gives them in different places.

Target: T1, human APJ receptor (Homo sapiens, UniProt P35414)
T1 construct: expressed in transfected cells
T1 sequence (P35414 1-380): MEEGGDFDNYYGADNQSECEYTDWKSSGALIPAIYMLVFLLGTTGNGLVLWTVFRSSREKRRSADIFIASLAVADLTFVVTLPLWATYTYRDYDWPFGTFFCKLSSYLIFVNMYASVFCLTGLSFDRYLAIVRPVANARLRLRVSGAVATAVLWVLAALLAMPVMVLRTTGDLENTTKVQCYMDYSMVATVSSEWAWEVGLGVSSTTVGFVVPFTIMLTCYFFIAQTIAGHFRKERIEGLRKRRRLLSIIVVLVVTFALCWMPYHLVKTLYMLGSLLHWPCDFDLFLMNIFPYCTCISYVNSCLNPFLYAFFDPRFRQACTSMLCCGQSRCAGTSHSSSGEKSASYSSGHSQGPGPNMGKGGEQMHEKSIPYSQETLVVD
Experiment: Intracellular cAMP accumulation assay (APJ hcAMP, HTRF)
Format: cell-based
Protocol: Intracellular cAMP Accumulation Assay
HEK293 cells stably expressing human APJ receptor were used to assess the activity of compounds. Cultured cells were detached and resuspended in the cAMP Homogeneous Time-Resolved Fluorescence (HTRF) assay buffer (Cisbio cat; #62AM4PEJ). The assay was performed in 384-well assay plates (Perkin-Elmer; cat #6008289) according to assay protocol provided by the manufacturer. Serial dilutions of a compound together with assay buffer containing […] IBMX and 2 μM forskolin were added to each well containing 5,000 cells and incubated for 30 minutes at room temperature. Subsequently, cAMP D2 reagent was added in the lysis buffer followed by the EuK antibody (Cisbio; cat #62AM4PEJ) and incubated for 60 min. The fluorescence emission ratio was measured using fluorometer. The intracellular cAMP concentrations (compound-stimulated inhibition of forskolin-mediated cAMP production) were calculated by extrapolation from a standard curve using known cAMP concentrations. The EC50 values were obtained by fitting the data to a sigmoidal concentration-response curve with variable slope. The maximal achievable inhibition of forskolin-induced cAMP levels (Ymax) for each compound was expressed as relative percentage of inhibition attained using pyroglutamated apelin-13 ((Pyrl)apelin-13) peptide, which was set to 100%.
The exemplified Examples disclosed below were tested in the APJ in vitro assays described above and were found having human APJ cyclic AMP (hcAMP) activity. Table 1 lists hcAMP EC50 values measured for the following examples. Ranges are as followε: A=0.0-10 nM; B=10.01-100 nM; C=101-500 nM.

[1] = Table 3, HEK293 cells stably expressing human APJ receptor, read-out: APJ cAMP Human EC50
[2] = Table 1, HEK293 cells stably expressing human APJ receptor, inhibition of forskolin-mediated cAMP production, read-out: APJ hcAMP EC50
[3] = human APJ, cAMP, potency range class, read-out: APJ cAMP Human EC50

In the case of `CCC[C@@H](NC(=O)c1ccc(-c2c(Cl)cccc2-c2nc(C)c(-c3ccccc3)[nH]2)c(C(=O)O)c1)c1ccccc1` (atropisomer, axis not shown) [Example 106, (S)-2′-chloro-6′-(4-methyl-5-phenyl-1H-imidazol-2-yl)-4-{[(1R)-1-phenylbutyl]carbamoyl}-[1,1′-biphenyl]-2-carboxylic acid], the EC50 [1] is reported as 10 to 100 nM.

`CCC[C@@H](NC(=O)c1ccc(-c2c(Cl)cccc2-c2ncc(-c3ccncc3)[nH]2)c(C(=O)O)c1)c1ccccc1` (atropisomer, axis not shown) [Example 107, (S)-2′-chloro-4-{[(1R)-1-phenylbutyl]carbamoyl}-6′-[5-(pyridin-4-yl)-1H-imidazol-2-yl]-[1,1′-biphenyl]-2-carboxylic acid] gave an EC50 [1] of 10 to 100 nM.

`CCC[C@@H](NC(=O)c1ccc(-c2c(Cl)cccc2-c2nc3cc(Cl)c(F)cc3[nH]2)c(C(=O)O)c1)c1ccccc1` (atropisomer, axis not shown) [Example 108, (S)-2′-chloro-6′-(5-chloro-6-fluoro-1H-1,3-benzodiazol-2-yl)-4-{[(1R)-1-phenylbutyl]carbamoyl}-[1,1′-biphenyl]-2-carboxylic acid] showed an EC50 [1] of less than 10 nM.

`CCC[C@@H](NC(=O)c1ccc(-c2c(Cl)cccc2-c2nc3cc(O)ccc3[nH]2)c(C(=O)OC)c1)c1ccccc1` (atropisomer, axis not shown) [Example 128, (S)-methyl 2′-chloro-6′-(5-hydroxy-1H-1,3-benzodiazol-2-yl)-4-{[(1R)-1-phenylbutyl]carbamoyl}-[1,1′-biphenyl]-2-carboxylate] gave an EC50 [1] of 10 to 100 nM.

`CCC[C@@H](NC(=O)c1ccc(-c2c(Cl)cccc2-c2nc3cc(OC)ccc3[nH]2)c(C(=O)O)c1)c1ccccc1` (atropisomer, axis not shown) [Example 132, (S)-2′-chloro-6′-(5-methoxy-1H-1,3-benzodiazol-2-yl)-4-{[(1R)-1-phenylbutyl]carbamoyl}-[1,1′-biphenyl]-2-carboxylic acid] was tested, and the EC50 [2] was less than 10 nM and the EC50 [1] was less than 10 nM.

Molecule `CCC[C@@H](NC(=O)c1ccc(-c2c(Cl)cccc2-c2nc3cnccc3[nH]2)c(C(=O)O)c1)c1ccccc1` (atropisomer, axis not shown) [Example 133, (S)-2′-chloro-6′-{1H-imidazo[4,5-c]pyridin-2-yl}-4-{[(1R)-1-phenylbutyl]carbamoyl}-[1,1′-biphenyl]-2-carboxylic acid] has an EC50 [1] of less than 10 nM.

For `CCC[C@@H](NC(=O)c1ccc(-c2c(Cl)cccc2-c2nc3cc(OC(C)=O)ccc3[nH]2)c(C(=O)O)c1)c1ccccc1` (atropisomer, axis not shown) [Example 134, (S)-2′-[5-(acetyloxy)-1H-1,3-benzodiazol-2-yl]-6′-chloro-4-{[(1R)-1-phenylbutyl]carbamoyl}-[1,1′-biphenyl]-2-carboxylic acid], the EC50 [2] was less than 10 nM and the EC50 [1] was less than 10 nM.

For `CCC[C@@H](NC(=O)c1ccc(-c2c(Cl)cccc2-c2nc3cc(O)ccc3[nH]2)c(C(=O)O)c1)c1ccccc1` (atropisomer, axis not shown) [Example 135, (S)-2′-chloro-6′-(5-hydroxy-1H-1,3-benzodiazol-2-yl)-4-{[(1R)-1-phenylbutyl]carbamoyl}-[1,1′-biphenyl]-2-carboxylic acid], the EC50 [1] was 10 to 100 nM.

Work on `CCC[C@@H](NC(=O)c1ccc(-c2c(Cl)cccc2-c2nc3cc(OC(C)=O)ccc3[nH]2)c(C(=O)O)c1)c1ccccc1` (atropisomer, axis not shown) [Example 136, (S)-2′-[5-(acetyloxy)-1H-1,3-benzodiazol-2-yl]-6′-chloro-4-{[(1R)-1-phenylbutyl]carbamoyl}-[1,1′-biphenyl]-2-carboxylic acid] yielded an EC50 [1] of 101 to 500 nM.

In the case of `CCC[C@@H](NC(=O)c1ccc(-c2c(Cl)cccc2-c2nc3ccccc3[nH]2)c(C(=O)O)c1)c1ccccc1` (atropisomer, axis not shown) [Example 141, (R)-2′-(1H-1,3-benzodiazol-2-yl)-6′-chloro-4-{[(1R)-1-phenylbutyl]carbamoyl}-[1,1′-biphenyl]-2-carboxylic acid], the EC50 [1] is reported as 10 to 100 nM.

`COC[C@@H](NC(=O)c1ccc(-c2c(Cl)cccc2-c2nc3ccccc3[nH]2)c(C(=O)O)c1)c1ccccc1` (atropisomer, axis not shown) [Example 150, (S)-2′-(1H-1,3-benzodiazol-2-yl)-6′-chloro-4-{[(1S)-2-methoxy-1-phenylethyl]carbamoyl}-[1,1′-biphenyl]-2-carboxylic acid] showed an EC50 [2] of less than 10 nM and an EC50 [1] of less than 10 nM.

Work on `CC(C)(O)C[C@@H](NC(=O)c1ccc(-c2c(Cl)cccc2-c2nc3ccccc3[nH]2)c(C(=O)O)c1)c1ccccc1` (atropisomer, axis not shown) [Example 151, (S)-2′-(1H-1,3-benzodiazol-2-yl)-6′-chloro-4-{[(1R)-3-hydroxy-3-methyl-1-phenylbutyl]carbamoyl}-[1,1′-biphenyl]-2-carboxylic acid] yielded an EC50 [2] of less than 10 nM and an EC50 [1] of less than 10 nM.

In the case of `CCC[C@H](NC(=O)c1ccc(-c2c(Cl)cccc2-c2nc3ccccc3[nH]2)c(C(=O)O)c1)c1ccccc1` (atropisomer, axis not shown) [Example 152, (S)-2′-(1H-1,3-benzodiazol-2-yl)-6′-chloro-4-{[(1S)-1-phenylbutyl]carbamoyl}-[1,1′-biphenyl]-2-carboxylic acid], the EC50 [1] is reported as 10 to 100 nM.

In the case of `COC[C@@H](NC(=O)c1ccc(-c2c(Cl)cccc2-c2nc3cc(OC)c(F)cc3[nH]2)c(C(=O)O)c1)c1ccccc1` (atropisomer, axis not shown) [Example 154, (S)-2′-chloro-6′-(6-fluoro-5-methoxy-1H-1,3-benzodiazol-2-yl)-4-{[(1S)-2-methoxy-1-phenylethyl]carbamoyl}-[1,1′-biphenyl]-2-carboxylic acid], the EC50 [1] is reported as less than 10 nM.

Molecule `CCC[C@@H](NC(=O)c1ccc(-c2c(Cl)cccc2-c2nc3cc(O)ccc3[nH]2)c(C(=O)O)c1)c1ccccc1` (atropisomer, axis not shown) [Example 155, (S)-2′-chloro-6′-(5-hydroxy-1H-1,3-benzodiazol-2-yl)-4-{[(1R)-1-phenylbutyl]carbamoyl}-[1,1′-biphenyl]-2-carboxylic acid] has an EC50 [1] of less than 10 nM.

`O=C(N[C@H](CN1CCOCC1)c1ccccc1)c1ccc(-c2c(Cl)cccc2-c2nc3ccccc3[nH]2)c(C(=O)O)c1` (atropisomer, axis not shown) [Example 156, (S)-2′-(1H-1,3-benzodiazol-2-yl)-6′-chloro-4-{[(1S)-2-(morpholin-4-yl)-1-phenylethyl]carbamoyl}-[1,1′-biphenyl]-2-carboxylic acid] showed an EC50 [2] of less than 10 nM and an EC50 [1] of less than 10 nM.

For `CCC[C@@H](NC(=O)c1ccc(-c2c(Cl)cccc2-c2nc3ccc(F)c(F)c3[nH]2)c(C(=O)O)c1)C1CCCCC1` (atropisomer, axis not shown) [Example 159, (S)-2′-chloro-4-{[(1R)-1-cyclohexylbutyl]carbamoyl}-6′-(6,7-difluoro-1H-1,3-benzodiazol-2-yl)-[1,1′-biphenyl]-2-carboxylic acid], the EC50 [2] was less than 10 nM and the EC50 [3] was less than 10 nM.

Molecule `CCC[C@@H](NC(=O)c1ccc(-c2c(Cl)cccc2-c2nc3cc(F)c(F)cc3[nH]2)c(C(=O)O)c1)C1CCCCC1` (atropisomer, axis not shown) [Example 162, (S)-2′-chloro-4-{[(1R)-1-cyclohexylbutyl]carbamoyl}-6′-(5,6-difluoro-1H-1,3-benzodiazol-2-yl)-[1,1′-biphenyl]-2-carboxylic acid] has an EC50 [2] of less than 10 nM and an EC50 [3] of less than 10 nM.

In the case of `O=C(NC(CCC(F)(F)F)c1ccccc1)c1ccc(-c2cc(Cl)ccc2-c2nc3ccccc3[nH]2)c(C(=O)O)c1` (racemic) [Example 158, 2′-(1H-Benzo[d]imidazol-2-yl)-5′-chloro-4-((4,4,4-trifluoro-1-phenylbutyl)carbamoyl)-[1,1′-biphenyl]-2-carboxylic acid], the EC50 [2] is reported as 10 to 100 nM and the EC50 [3] is reported as 10 to 100 nM.

Molecule `CC(C)CC(NC(=O)c1ccc(-c2cc(Cl)ccc2-c2nc3ccccc3[nH]2)c(C(=O)O)c1)c1ccccc1` (racemic) [Example 210, 2′-(1H-1,3-benzodiazol-2-yl)-5′-chloro-4-[(3-methyl-1-phenylbutyl)carbamoyl]-[1,1′-biphenyl]-2-carboxylic acid] has an EC50 [2] of less than 10 nM and an EC50 [3] of less than 10 nM.

`CC(C)(C)CC(NC(=O)c1ccc(-c2cc(Cl)ccc2-c2nc3ccccc3[nH]2)c(C(=O)O)c1)c1ccccc1` (racemic) [Example 212, 2′-(1H-1,3-benzodiazol-2-yl)-5′-chloro-4-[(3,3-dimethyl-1-phenylbutyl)carbamoyl]-[1,1′-biphenyl]-2-carboxylic acid] gave an EC50 [2] of 10 to 100 nM and an EC50 [3] of 10 to 100 nM.
